Where two headings read alike, the source gives them in different places. Values belong to the compound of their own block, whether it stands above or below them.
Tests used:
[1] = system: amino acid racemase and PAM; test: Coupled enzyme reaction (racemase + PAM, DKR conditions); assay type: biochemical; details: 0.4 mM racemic α-arylalanine, 200 μg/mL racemase, 100 μg/mL PAM, 20 h
Procedure: Coupled Enzyme Reaction. The coupled enzyme reaction mixture incubated at 31° C. contained partially purified amino acid racemase (200 μg) and PAM (100 μg) in 1 mL of 50 mM phosphate buffer (pH 8.0) containing 5% (v/v) glycerol. Each of the aryl α-amino acids (0.4 mM) were individually added to a separate assay tube containing the coupled enzyme mixture. After 20 h, the reactions were terminated by basification to pH 10-12 (with 0.5 N NaOH solution) and the amino acids were derivatized for quantification by chiral GC/EI-MS analysis as described previously.

[2] = system: previously reported racemase; details: naturally occurring aromatic amino acids; cited from earlier work
[3] = target: T1, phenylalanine aminomutase (PAM) (Taxus canadensis, UniProt Q6GZ04); test: Equilibration of α- and β-arylalanines by PAM; assay type: biochemical; set-up: His6 (N); made in house; host or cells: E. coli BL21(DE3); details: 100 μg PAM, 31° C.; for β-product to α-substrate ratio: after 20 h, 0.4 mM substrate
T1 sequence (Q6GZ04 1-698): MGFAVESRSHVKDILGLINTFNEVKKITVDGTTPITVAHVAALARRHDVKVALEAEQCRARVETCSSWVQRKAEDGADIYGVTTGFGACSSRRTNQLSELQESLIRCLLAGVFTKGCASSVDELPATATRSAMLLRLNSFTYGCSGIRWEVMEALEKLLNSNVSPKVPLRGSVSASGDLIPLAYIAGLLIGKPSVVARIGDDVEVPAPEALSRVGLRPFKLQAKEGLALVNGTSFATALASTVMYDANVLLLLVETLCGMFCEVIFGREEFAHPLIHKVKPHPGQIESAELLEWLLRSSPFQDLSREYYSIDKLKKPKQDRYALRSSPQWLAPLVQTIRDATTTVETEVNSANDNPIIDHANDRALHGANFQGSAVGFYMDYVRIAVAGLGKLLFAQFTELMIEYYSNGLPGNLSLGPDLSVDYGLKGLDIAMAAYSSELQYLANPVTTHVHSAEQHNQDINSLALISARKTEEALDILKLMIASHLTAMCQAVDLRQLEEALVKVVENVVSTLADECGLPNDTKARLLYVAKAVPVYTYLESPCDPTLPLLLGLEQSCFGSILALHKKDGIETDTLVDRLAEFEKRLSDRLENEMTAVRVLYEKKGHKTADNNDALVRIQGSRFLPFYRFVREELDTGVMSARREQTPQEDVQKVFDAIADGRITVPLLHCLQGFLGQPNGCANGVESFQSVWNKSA
Procedure: Assessing the Equilibration Rate of α- and β-Arylalanines by PAM. […] An aliquot was withdrawn from each reaction at five time points (0, 3, 6, 9 and 20 h). The ratio of (R)-β-arylalanine to (S)-α-arylalanine in each aliquot was calculated by GC/EI-MS fragmentation analysis and the abundances of the base peak fragment ions of the amino acid derivatives were compared as described earlier. The relative amount of each α-arylalanine and β-arylalanine at equilibrium was determined by linear regression analysis of the area of the base peak ion of the derivatized α- and β-arylalanines generated in the EI-MS. The peak area was converted to concentration of product (or substrate) by solving the corresponding linear equation, derived by plotting the area of the base peak ion (produced by the corresponding authentic standard in the mass spectrometer) against concentration ranging from 0 to 1.5 mM.

[4] = target: T1, phenylalanine aminomutase (PAM); test: Effect of (R)-α-phenylalanine on PAM activity (kinetic constants)
Procedure: Evaluation of the Effect of (R)-α-Phenylalanine on PAM Activity. Phenylalanine aminomutase (100 μg/mL) was added to 50 mM phosphate buffer (pH 8.0) containing 5% (v/v) glycerol at 31° C. containing either (S)-α-phenylalanine or (R)-β-phenylalanine at a range of concentrations (0.05, 0.10, 0.20, 0.40, 0.75, 1.5, and 3 mM). The reactions were incubated at 31° C. for 90 min under steady state conditions. Identical series of assays were run in parallel for the (S)-α- or (R)-β-phenylalanine as substrates, except 0.2 mM and 0.75 mM of (R)-α-phenylalanine were added separately to each series. Double reciprocal plots of velocity (vo) and concentration were constructed for the forward and reverse PAM reaction data sets. The equation of the best-fit line (R^2=0.98) was determined (Microsoft Excel 2003, Microsoft Corporation, Redmond, Wash.) to calculate the apparent KM and Ki for the appropriate reaction.^17

[5] = target: T2, amino acid racemase from Pseudomonas putida (KT2440) (Pseudomonas putida, UniProt Q88GJ9); test: Racemization of α-arylalanines by amino acid racemase; assay type: biochemical
T2 construct: His6 (N); made in house; host or cells: E. coli BL21(DE3)
T2 sequence (Q88GJ9 25-409): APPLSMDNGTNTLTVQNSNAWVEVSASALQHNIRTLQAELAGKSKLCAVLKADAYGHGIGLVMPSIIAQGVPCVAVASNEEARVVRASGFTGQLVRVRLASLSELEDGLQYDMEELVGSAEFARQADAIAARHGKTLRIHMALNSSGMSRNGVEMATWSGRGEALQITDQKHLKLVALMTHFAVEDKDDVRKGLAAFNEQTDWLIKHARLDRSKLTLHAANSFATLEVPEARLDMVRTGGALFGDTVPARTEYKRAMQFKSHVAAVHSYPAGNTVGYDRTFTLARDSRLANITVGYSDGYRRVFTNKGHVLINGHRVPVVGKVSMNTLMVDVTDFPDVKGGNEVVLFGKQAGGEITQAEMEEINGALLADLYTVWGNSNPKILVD
Procedure: Assessing the Racemization Rate of α-Arylalanines by the Amino Acid Racemase. The partially purified (>90%) amino acid racemase (200 μg/mL) was added to 2.5 mL of 50 mM phosphate buffer (pH 8.0) containing 5% (v/v) glycerol and one different (S)-α-arylalanine (1.5 mM) in separate assays; the mixtures were incubated at 31° C. An aliquot was withdrawn from each reaction at five time points (0.5, 10, 30, 60, and 360 min). A similar time course experiment was conducted with (R)-α-phenylalanine.
Cofactor Dependency of the Amino Acid Racemase. To assess whether sufficient PLP, made by the E. coli BL21(DE3) expression host, remained bound to the functional PLP-dependent racemase for the duration of the assay, partially purified enzyme (400 μg) was added to each of two 2-mL assays that contained (S)-α-phenylalanine (1.5 mM). To one assay, exogenous PLP (50 μM) was added, and to the other, no cofactor was added. After 6 h, the contents of the reaction vial without PLP added were divided into two fractions […]; to one fraction was added PLP (50 μM), and the other fraction remained unchanged. Additional (S)-α-phenylalanine was added to a final concentration of 1.5 mM in all three assays, and incubated for 14 h.
Evaluation of the Effect of (R)-β-Phenylalanine on Racemase Activity. The partially purified amino acid racemase (400 μg) in 50 mM phosphate (2 mL, pH 8.0) containing 5% (v/v) glycerol buffer and (S)-α-phenylalanine (0.75 mM) was incubated in separate assays with or without (R)-β-phenylalanine (0.75 mM) added. Aliquots (0.5 mL) of each reaction mixture were withdrawn from each assay at three time points (30, 60 and 360 min). The amino acids in each fraction were derivatized and analyzed by chiral GC/EI-MS as described previously. The mol % of (S)-α-, (R)-α-arylalanine, and (R)-β-arylalanine in each sample were assessed by comparing the abundance of the diagnostic base peak fragment ion (m/z) derived by GC/EI-MS fragmentation for each of the corresponding analytes.

[6] = target: T1, phenylalanine aminomutase (PAM); set-up: His6 (N); made in house; host or cells: E. coli BL21(DE3); details: enantiopure (S)-α-phenylalanine, 10 μg/mL enzyme, 10 μM substrate, same temperature; cited from earlier work

increase in conversion to (R)-β-arylalanine under DKR conditions compared to PAM alone [1]: 12%
Compound: NC(Cc1cccs1)C(=O)O (racemic) [2′-thienyl-α-arylalanine, (R,S)-3-(2′-thienyl)alanine]

increase in conversion to (R)-β-arylalanine under DKR conditions compared to PAM alone [1]: 14%
Compound: NC(Cc1cccc(F)c1)C(=O)O (racemic) [3′-fluoro-α-arylalanine, 2-amino-3-(3′-fluorophenyl)propionic acid]

increase in conversion to (R)-β-arylalanine under DKR conditions compared to PAM alone [1]: 16%
Compound: NC(Cc1ccc(F)cc1)C(=O)O (racemic) [4′-fluoro-α-arylalanine, 2-amino-3-(4′-fluorophenyl)propionic acid]

increase in conversion to (R)-β-arylalanine under DKR conditions compared to PAM alone [1]: 12%
Compound: Cc1ccc(CC(N)C(=O)O)cc1 (racemic) [4′-methyl-α-arylalanine, (R,S)-2-amino-3-(4′-methylphenyl)propionic acid]

Compound: N[C@@H](Cc1ccccc1)C(=O)O (racemic) [phenylalanine]
increase in conversion to (R)-β-arylalanine under DKR conditions compared to PAM alone [1]: 19% | Vrel [2]: 0.18 | Keq ([3]; racemic substrate 0.4 mM, 20 h): 1.8

inhibition of the PAM reaction (forward) ([4]; 0.2 mM and 0.75 mM (R)-α-phenylalanine): did not significantly inhibit | inhibition of the reverse PAM reaction ([4]; (R)-β-phenylalanine as substrate): not inhibited
Compound: N[C@H](Cc1ccccc1)C(=O)O [(R)-α-Phenylalanine, (R)-α-phenylalanine]

Compound: N[C@H](CC(=O)O)c1ccccc1 [(R)-β-phenylalanine, (R)-3-amino-3-phenylpropionic acid]
substrate of the racemase [5]: nor was (R)-β-amino acid a substrate of the racemase | effect on racemase reaction rate / activity ([5]; β-arylalanine added to racemization of (S)-α-arylalanine): not affect the reaction rate

Compound: N[C@@H](Cc1ccco1)C(=O)O [(S)-2-furanyl-α-alanine, (S)-2-amino-3-(2′-furanyl)propionic acid]
β-product to α-substrate ratio [3]: 0.41

Compound: N[C@@H](Cc1cccs1)C(=O)O [(S)-2-thienyl-α-alanine, (S)-3-(2′-thienyl)alanine]
β-product to α-substrate ratio [3]: 0.71

Compound: Cc1ncc(COP(=O)(O)O)c(C=O)c1O [PLP, pyridoxal-5′-phosphate, reference compound]
change in racemase reaction rate with or without supplementation ([5]; 1.5 mM α-arylalanines, exogenous PLP 50 μM): No change in the reaction rate

Compound: N[C@@H](Cc1c[nH]cn1)C(=O)O [histidine]
Vrel [2]: 1

Compound: N[C@@H](Cc1c[nH]c2ccccc12)C(=O)O [tryptophan]
Vrel [2]: 0.004

Compound: (S)-α-phenylalanine
Vmax ([4]; forward reaction, with (R)-α-phenylalanine, no evident change relative to no inhibitor): 0.1 µmol/min/mg | Km ([4]; read-out: KM of PAM, in the absence of (R)-α-phenylalanine): 700 µM | Km ([4]; read-out: apparent Michaelis constant (KM apparent), forward reaction, in the presence of (R)-α-phenylalanine): 1100 µM | Keq (previous study) [6]: 1.1

From patent US20100285540A1, “Process for the preparation of (R)-Beta-Arylalanines by coupled Racemase/Aminomutase catalysis” (Board of Trustees of Michigan State University, priority 2009, published 2010)
